Test results published in US20200109163A1, “CARBONATED BEVERAGE AND METHOD FOR CARBONATION ENHANCEMENT” (INTERNATIONAL FLAVORS & FRAGRANCES INC., priority 2018, published 2020).

Key:
Assay type in all cases: in vivo
[1] = Carbonation effect of structural analogs in lime-flavored carbonated water, trained panel
Experimental: Selected structural analogs of sitosterol were tested for their ability to enhance the carbonation effect of a carbonated beverage. The analogs were used in amounts of 400 ppb and 200 ppb to 5 ppm. The sensory evaluation was carried by a trained panel that tasted each of the compounds in a lime-flavored carbonated water (Vintage seltzer water). The intensity of carbonation effect was rated and compared to other samples (Table 3)

[2] = Flavor of β-sitosterol solutions in water; details: solutions 2.5 to 600 ppb in water
[3] = Alcohol impression in alcohol-free beer, panel comparison with alcohol solutions; details: 25 ppb in Brahma 0.0% alcohol-free beer
Experimental: Alcohol solutions at 1% ABV, 2% ABV, 2.5% ABV, 3% ABV and 5% ABV were prepared by adding varying amounts of ethanol in Brahma 0.0% alcohol-free beer (Anheuser-Busch InBev);
A β-sitosterol solution (prepared in Example 1) was added in Brahma 0.0% alcohol-free beer to yield a final concentration of 25 ppb. The alcohol impression of the obtained sample was evaluated and compared by a panel with alcohol solutions at 1% ABV, 2% ABV, 2.5% ABV, 3% ABV and 5% ABV (prepared in Example 1). β-Sitosterol (25 ppb) provided an equal level of alcohol impression as the alcohol solution at 2.5% ABV. Accordingly, β-Sitosterol provided alcohol sensation in alcohol-free beverages.

[4] = Alcohol sensation intensity in alcohol solution at 6% ABV, panel, scale 0 to 10; details: 100 ppb in solution of 6% ABV; scale 0 to 10 (0=none, 4=medium, 7=high, 10=extremely high); control 4.38 ± 0.32
Experimental: Alcohol solution at 6% ABV was prepared by adding ethanol in water; and
A β-sitosterol solution (prepared in Example 1) was added to the alcohol solution at 6% ABV (prepared in Example 1) to yield a final concentration of 100 ppb. The alcohol sensation of the obtained sample was evaluated and compared by a panel with the alcohol solution at 6% ABV using an intensity scale of 0 to 10, where 0=none, 4=medium, 7=high and 10=extremely high. The intensity of alcohol sensation was rated. Mean (“Alcohol Intensity”) and standard error of the mean (“SE”, ±) were obtained (Table 1).

[5] = Alcohol sensation with varying amounts of β-sitosterol in alcohol solution at 17.5% ABV
Experimental: (§1) Alcohol solutions with ABV ranging from 8.75% to […] were prepared by diluting CAPTAIN MORGAN® Original Spiced Rum (35% ABV) (Diageo North America Inc.) in varying amounts of water.
A series of β-sitosterol solutions (prepared in Example 1) were added to the alcohol solution at 17.5% ABV (prepared in Example 1) to yield final concentrations of β-sitosterol ranging from 3 to 500 ppb. The alcohol sensation of the obtained samples containing different amounts of β-sitosterol was evaluated.

[6] = Alcohol sensation with varying amounts of alcohol, panel comparison with solutions at higher ABV
Experimental: as §1
A β-sitosterol solution (prepared in Example 1) was added to alcohol solutions at 8.75% ABV, 17.5% ABV and 21.75% ABV (prepared in Example 1), respectively, to yield a final concentration of 25 ppb β-sitosterol. The alcohol sensation of the obtained samples was evaluated and compared by a panel with alcohol solutions at higher levels of ABV.

[7] = Carbonation effect intensity in carbonated water (7.2 g/L CO2), panel, scale 0 to 10; details: 2.5 ppt in solution of 7.2 g/L CO2; scale 0 to 10 (0=none, 4=medium, 7=high, 10=extremely high); control 4.88 ± 2.53
Experimental: (§2) Carbonated water containing carbon dioxide at 6.0, 7.2 and 8.0 g/L, respectively, were also prepared.
A β-sitosterol solution (prepared in Example 1) was added to the carbonated water (7.2 g/L CO2) (prepared in Example 1) to yield a final concentration of 2.5 ppt. The carbonation effect of the obtained sample was evaluated and compared by a panel with the carbonated water using an intensity scale of 0 to 10, where 0=none, 4=medium, 7=high and 10=extremely high. The intensity of carbonation effect was rated. Mean (“Carbonation Intensity”) and standard error of the mean (“SE”, ±) were obtained (Table 2).

[8] = Carbonation sensation with varying amounts of β-sitosterol in carbonated water (7.2 g/L CO2)
Experimental: as §2
A series of β-sitosterol solutions (prepared in Example 1) were added to carbonated water (7.2 g/L CO2) (prepared in Example 1) to yield final concentrations ranging from 0.1 ppt to 50 ppt. The carbonation sensation of the obtained samples containing different amounts of β-sitosterol was evaluated.

[9] = Carbonation sensation with varying amounts of carbonation; details: 2.5 ppt in carbonated water containing 6.0, 7.2 or 8.0 g/L CO2, all samples
Experimental: as §2
A β-sitosterol solution (prepared in Example 1) was added to carbonated water containing 6.0, 7.2 or 8.0 g/L CO2 (prepared in Example 1), respectively, to yield a final concentration of 2.5 ppt β-sitosterol. The carbonation sensation of the obtained samples was evaluated.

[10] = 200 ppb-5 ppm in lime-flavored carbonated water (Vintage seltzer water)
[11] = 200 ppb in lime-flavored carbonated water (Vintage seltzer water)

## CC[C@H](CC[C@@H](C)[C@H]1CC[C@H]2[C@@H]3CC=C4C[C@@H](O[C@@H]5O[C@H](CO)[C@@H](O)[C@H](O)[C@H]5O)CC[C@]4(C)[C@H]3CC[C@]12C)C(C)C [β-Sitosterol β-D-glucoside, Daucosterol, β-Sitosterol β-D-glucoside]
[1]; [10]
  Carbonation Effect: 200 ppb-5 ppm: Slight tingly tip of tongue,

## CC[C@H](CC[C@@H](C)[C@H]1CC[C@H]2[C@@H]3CC=C4C[C@@H](O)CC[C@]4(C)[C@H]3CC[C@]12C)C(C)C [β-sitosterol, (3S,8S,9S,10R,13R,14S,17R)-17-((1R,4R)-4-ethyl-1,5-dimethyl-hexyl)-10,13-dimethyl-2,3,4,7,8,9,10,11,12,13,14,15,16,17-tetradecahydro-1H-cyclopenta[a]phenanthren-3-ol]
[2]
  Flavor of the compound itself: no noticeable flavor itself
[3]
  Alcohol impression, equal level as alcohol solution at: 2.5 % ABV
[4]
  Mean Alcohol Intensity ± SE: 7.21 ± 0.27
[5]; 3 ppb in alcohol solution at 17.5% ABV
  Alcohol sensation: slight but noticeable increase in alcohol sensation
[5]; 200 ppb in alcohol solution at 17.5% ABV
  Enhancement of alcohol sensation: reached a stable plateau
[5]; higher concentrations (above 3 ppb, up to 500 ppb) in alcohol solution at 17.5% ABV
  Alcohol sensation: clear increase in alcohol intensity
[6]; 25 ppb in alcohol solution at 8.75% ABV
  Alcohol sensation at the level of an alcohol solution at: 10 % ABV
[6]; 25 ppb in alcohol solution at 17.5% ABV
  Alcohol sensation at the level of an alcohol solution at: 22.5 % ABV
[6]; 25 ppb in alcohol solution at 21.75% ABV
  Alcohol sensation at the level of an alcohol solution at: 35 % ABV
[7]
  Mean Carbonation Intensity ± SE: 7.19 ± 1.73
[8]; 0.1 ppt in carbonated water (7.2 g/L CO2)
  Carbonation perception: slight increase in carbonation perception
[8]; 2.5 ppt in carbonated water (7.2 g/L CO2)
  Carbonation perception: clear increase in carbonation perception
[8]; 5 ppt or higher in carbonated water (7.2 g/L CO2)
  Enhancement of carbonation effect: reached a stable plateau
[9]
  Carbonation sensation: provided enhancement of carbonation sensation

## CC(C)(O)[C@@H]1CC[C@](C)([C@H]2[C@@H](O)C[C@@]3(C)[C@@H]4C[C@H](O[C@@H]5O[C@H](CO)[C@@H](O)[C@H](O)[C@H]5O)[C@H]5C(C)(C)[C@@H](O[C@@H]6OC[C@@H](O)[C@H](O)[C@H]6O)CC[C@@]56C[C@@]46CC[C@]23C)O1 [Astragaloside IV]
[1]; [11]
  Carbonation Effect: 200 ppb: More impactful, long lasting, very

## C=C(C)[C@@H]1CC[C@]2(CO)CC[C@]3(C)[C@H](CC[C@@H]4[C@@]5(C)CC[C@H](O)C(C)(C)[C@@H]5CC[C@]43C)[C@@H]12 [Betulin]
[1]; [11]
  Carbonation Effect: 200 ppb: Long lasting popping, sour, works with

## C[C@H](CCC(=O)NCCS(=O)(=O)[O-])[C@H]1CC[C@H]2[C@@H]3[C@@H](O)C[C@@H]4C[C@H](O)CC[C@]4(C)[C@H]3CC[C@]12C.[Na+] [Sodium tauroursodeoxycholate]
[1]; [11]
  Carbonation Effect: 200 ppb: Very impactful, numbing, slightly more

## CC(C)CCC[C@@H](C)[C@H]1CC[C@H]2[C@@H]3CC=C4C[C@@H](O)CC[C@]4(C)[C@H]3CC[C@]12C [Cholesterol]
[1]; [10]
  Carbonation Effect: 200 ppb-5 ppm: Very similar to Deoxycholic

## C[C@@H]1CC[C@@]2(OC1)O[C@H]1C[C@H]3[C@@H]4CC=C5C[C@@H](O)CC[C@]5(C)[C@H]4CC[C@]3(C)[C@H]1[C@@H]2C [Diosgenin]
[1]; [10]
  Carbonation Effect: 200 ppb-5 ppm: Not much effect on carbonation,

## C[C@H](CCC(=O)O)[C@H]1CC[C@H]2[C@@H]3C[C@H](O)[C@@H]4C[C@H](O)CC[C@]4(C)[C@H]3CC[C@]12C [Hyodeoxycholic acid]
[1]; [11]
  Carbonation Effect: 200 ppb: Very foamy, fast bubbles upfront,

## CC[C@H](/C=C/[C@@H](C)[C@H]1CC[C@H]2[C@@H]3CC=C4C[C@@H](O)CC[C@]4(C)[C@H]3CC[C@]12C)C(C)C [Stigmasterol]
[1]; [10]
  Carbonation Effect: 200 pb-5 ppm: 5 ppm is a good level, adds more

## C[C@H](CCC(=O)O)[C@H]1CC[C@H]2[C@@H]3[C@H](O)C[C@@H]4C[C@H](O)CC[C@]4(C)[C@H]3C[C@H](O)[C@]12C [Cholic acid]
[1]; [11]
  Carbonation Effect: 200 ppb: More tingly bubbles on tongue, linger,
[1]; 400 ppb in lime-flavored carbonated water (Vintage seltzer water)
  Carbonation Effect: 400 ppb: Very foamy, foam builds, lingering

## C[C@H](CCC(=O)O)[C@H]1CC[C@H]2[C@@H]3[C@H](O)C[C@@H]4C[C@H](O)CC[C@]4(C)[C@H]3CC[C@]12C [Chenodeoxycholic acid]
[1]; [10]
  Carbonation Effect: 200 ppb-5 ppm: Adds more violent upfront

## C[C@H](CCC(=O)NCC(=O)O)[C@H]1CC[C@H]2[C@@H]3[C@H](O)C[C@@H]4C[C@H](O)CC[C@]4(C)[C@H]3C[C@H](O)[C@]12C [Glycocholic acid hydrate]
[1]; [11]
  Carbonation Effect: 200 ppb: Longer lasting bubbles than control,
